107 compounds from a flash point compilation (Sun et al. 2020) can be followed below.

Molecules are shown by their SMILES.

`C=CCCCCCCCCCCCCC` [1-pentadecene] yielded a flash point of 113 °C.
In the case of `CCCCCS` [1-pentanethiol], the flash point came to 18 °C.
`CCCCCO` [1-pentanol] yielded a flash point of 49 °C.
`C=CCCC` [1-pentene] gave a flash point of -51 °C.
Next, `C#CCCC` [1-pentyne]: -34 °C; `CCCC(=O)c1ccccc1` [1-phenyl-1-butanone]: 88 °C.
The compound `CCC(=O)CCc1ccccc1` [1-phenyl-3-pentanone] registered a flash point of 103 °C.
As to `C#CCCCCCCCCCCC` [1-tridecyne], the flash point is 93 °C.
Take `CCCCCCCCCCCO` [1-undecanol]: the flash point was found to be 115 °C.
Regarding `C#CCCCCCCCCC` [1-undecyne], the flash point amounted to 65 °C.
In the case of `CCC(C)(C)C(C)(C)C` [2,2,3,3-tetramethylpentane], the flash point came to 16 °C.
With `CCC(C)C(C)C(C)(C)C` (configuration not stated) [2,2,3,4-tetramethylhexane] the figure was 31 °C; with `CC(C)C(C)(C)C` [2,2,3-trimethylbutane], -24 °C; with `CC(CC(C)(C)C)CC(C)(C)CC(C)(C)C` (configuration not stated) [2,2,4,4,6,8,8-heptamethylnonane], 95 °C.
Consider `CC(C)(C)CC(C)(C)C` [2,2,4,4-tetramethylpentane], for which the flash point is 6 °C.
Compound `CC(C)CCC(C)(C)C` [2,2,5-trimethylhexane] returned a flash point of 13 °C.
`CC(C)(Cl)Cl` [2,2-dichloropropane] showed a flash point of -5 °C.
With `CCC(C)(C)C` [2,2-dimethylbutane] the figure was -29 °C; with `CC1(C)CCCC1=O` [2,2-dimethylcyclopentanone], 33 °C; with `CCCCCC(C)(C)C` [2,2-dimethylheptane], 24 °C.
In turn, `C=C(C)C(C)(C)C` [2,3,3-trimethyl-1-butene] had a flash point of -17 °C.
The compound `CCCC(C)(C)C(C)C` [2,3,3-trimethylhexane] displayed a flash point of 15 °C.
`CC(C)C(C)C(C)C(C)C` (configuration not stated) [2,3,4,5-tetramethylhexane] came in with a flash point of 31 °C.
In the case of `CC(C)C(C)C(C)C` [2,3,4-trimethylpentane], the flash point was -0 °C.
Turning to `CC(C)CC(C)C(C)C` (configuration not stated) [2,3,5-trimethylhexane], the flash point was 15 °C.
For `CC(=O)C(C)=O` [2,3-butanedione], the flash point is 10 °C.
Next, `OCC(Cl)CCl` (configuration not stated) [2,3-dichloro-1-propanol]: 93 °C; `CC1=CCCO1` [2,3-dihydro-5-methylfuran]: -12 °C; `C1=COCC1` [2,3-dihydrofuran]: -24 °C.
`C=C(C)C(C)CC` (configuration not stated) [2,3-dimethyl-1-pentene] registered a flash point of -17 °C.
`Cc1cccc(N)c1C` [2,3-dimethylaniline] gave a flash point of 96 °C.
With `CCCC(C)C(C)C` (configuration not stated) [2,3-dimethylhexane] the figure was 5 °C.
As to `CCCCCC(C)C(C)C` (configuration not stated) [2,3-dimethyloctane], the flash point was 36 °C.
With `CCC(C)(C)CC(C)C` [2,4,4-trimethylhexane], the flash point was determined as 15 °C.
As to `CC(C)CC(C)CC(C)C` [2,4,6-trimethylheptane], the flash point was found to be 31 °C.
For the compound `Cc1cc(C)nc(C)c1` [2,4,6-trimethylpyridine], the flash point turned out to be 54 °C.
`CCCC(C)CC(C)C` (configuration not stated) [2,4-dimethylheptane] came in with a flash point of 15 °C.
Turning to `Cc1ccc(O)c(C)c1` [2,4-dimethylphenol], the flash point stood at 94 °C.
Compound `Cc1ccnc(C)c1` [2,4-dimethylpyridine] came in with a flash point of 47 °C.
Regarding `CC(=O)CC(C)=O` [2,4-pentanedione], the flash point was 38 °C.
Next, `CCC(C)CCC(C)C` (configuration not stated) [2,5-dimethylheptane]: 15 °C.
On to `CC(=O)CCC(C)=O` [2,5-hexanedione], for which the flash point was 78 °C.
In turn, `CC(C)CCCC(C)C` [2,6-dimethylheptane] came in with a flash point of 26 °C.
For `CCC(C)S` (configuration not stated) [2-butanethiol], the flash point was -23 °C.
As to `CCCCOCCO` [2-butoxyethanol], the flash point came out at 62 °C.
`CCCCOCCOC(C)=O` [2-butoxyethylacetate] yielded a flash point of 71 °C.
`CC1=CC2C(CC1)C2(C)C` (configuration not stated) [2-carene]: the flash point came out at 38 °C.
Next, `CC(Cl)CO` (configuration not stated) [2-chloro-1-propanol]: 51 °C; `CCC(C)Cl` (configuration not stated) [2-chlorobutane]: -15 °C.
In turn, `OCCCl` [2-chloroethanol] registered a flash point of 55 °C.
With `O=C1C=CCCC1` [2-cyclohexen-1-one] the figure was 56 °C.
With `CCCCCCCCC(C)O` (configuration not stated) [2-decanol], the flash point came out at 85 °C.
Consider `CCCCCCCCCCC(C)=O` [2-dodecanone], for which the flash point worked out at 108 °C.
On to `CC#CCCCCCCCCC` [2-dodecyne], for which the flash point worked out at 78 °C.
Consider `CCOCCOC(C)=O` [2-ethoxyethylacetate], for which the flash point came out at 51 °C.
`CCc1cc(C)ccc1C` [2-ethyl-1,4-dimethylbenzene]: the flash point is 56 °C.
Next, `C=C(CC)CC` [2-ethyl-1-butene]: -26 °C; `CCCCC(CC)CN` (configuration not stated) [2-ethyl-1-hexanamine]: 50 °C; `C=C(CC)CCC` [2-ethyl-1-pentene]: -10 °C.
`CCc1ccccc1N` [2-ethylaniline] came in with a flash point of 85 °C.
Next, `CCC(C=O)CC` [2-ethylbutanal]: 21 °C; `CCC1CCCCCC1=O` (configuration not stated) [2-ethylcycloheptanone]: 71 °C.
For `CCc1ccco1` [2-ethylfuran], the flash point was -2 °C.
Consider `CCCCC(C=O)CC` (configuration not stated) [2-ethylhexanal], for which the flash point was found to be 46 °C.
With `C=CC(=O)OCC(CC)CCCC` (configuration not stated) [2-ethylhexylacrylate] the figure was 86 °C; with `CCc1cccs1` [2-ethylthiophene], 21 °C.
`CCCCCC(C)=O` [2-heptanone] registered a flash point of 39 °C.
On to `CCCCC(C)O` (configuration not stated) [2-hexanol], for which the flash point turned out to be 46 °C.
The compound `CCCC(C)I` (configuration not stated) [2-iodopentane] registered a flash point of 45 °C.
For `CC(C)COCCO` [2-isobutoxyethanol], the flash point worked out at 51 °C.
Take `CC(C)OCCO` [2-isopropoxyethanol]: the flash point was 43 °C.
With `OCCS` [2-mercaptoethanol] the figure was 68 °C; with `CCC(C)OC` (configuration not stated) [2-methoxybutane], -29 °C; with `CCC(C)CS` (configuration not stated) [2-methyl-1-butanethiol], 19 °C.
As to `CCC(C)CO` (configuration not stated) [2-methyl-1-butanol], the flash point stood at 43 °C.
For the compound `C=C(C)CC` [2-methyl-1-butene], the flash point is -47 °C.
With `C=C(C)CCC` [2-methyl-1-pentene] the figure was -27 °C; with `CC(C)CO` [2-methyl-1-propanol], 28 °C; with `CCC(C)(C)O` [2-methyl-2-butanol], 21 °C.
With `CC=C(C)C` [2-methyl-2-butene] the figure was -45 °C; with `CCCCC=C(C)C` [2-methyl-2-heptene], 9 °C.
With `CCCC(C)(C)S` [2-methyl-2-pentanethiol] the figure was 20 °C; with `CCC(O)C(C)C` (configuration not stated) [2-methyl-3-pentanol], 46 °C.
For `CCCCCCCCC(C)C` [2-methyldecane], the flash point worked out at 50 °C.
On to `CCCCCCCCCCC(C)C` [2-methyldodecane], for which the flash point came to 71 °C.
`CCCCC(C)C(=O)O` (configuration not stated) [2-methylhexanoicacid] displayed a flash point of 105 °C.
For `CCCCCCC(C)C` [2-methyloctane], the flash point was 24 °C.
With `CCCCCCCCCC(C)C` [2-methylundecane] the figure was 61 °C; with `CC(C)[N+](=O)[O-]` [2-nitropropane], 28 °C; with `CCCCCCCC(C)=O` [2-nonanone], 68 °C.
With `CCCCCCC(C)O` (configuration not stated) [2-octanol] the figure was 72 °C; with `CCCCCC1CCCC1=O` (configuration not stated) [2-pentylcyclopentanone], 78 °C.
On to `CCC(C)(C)c1ccccc1` [2-phenyl-2-methylbutane], for which the flash point stood at 59 °C.
As to `CCCc1ccco1` [2-propylfuran], the flash point is 15 °C.
Take `CCCc1ccccc1O` [2-propylphenol]: the flash point came out at 93 °C.
Next, `CCC(C)c1ccccc1O` (configuration not stated) [2-sec-butylphenol]: 107 °C; `CCCCCCCCCC(C)=O` [2-undecanone]: 89 °C; `CCC(C)(C)C(C)(C)CC` [3,3,4,4-tetramethylhexane]: 31 °C.
In turn, `CC1(C)CC(=O)CC(C)(C)C1` [3,3,5,5-tetramethylcyclohexanone] registered a flash point of 73 °C.
With `CCC(C)CC(C)(C)CC` (configuration not stated) [3,3,5-trimethylheptane] the figure was 31 °C.
`CCC(CC)(CC)CC` [3,3-diethylpentane] gave a flash point of 21 °C.
With `C#CC(C)(C)C` [3,3-dimethyl-1-butyne], the flash point was -34 °C.
Consider `CC(C)(C)CC(=O)O` [3,3-dimethylbutanoicacid], for which the flash point was determined as 88 °C.
Turning to `CCCC(C)(C)CC` [3,3-dimethylhexane], the flash point is -1 °C.
Consider `CCCCCC(C)(C)CC` [3,3-dimethyloctane], for which the flash point amounted to 41 °C.
Turning to `CCC(C)(C)CC` [3,3-dimethylpentane], the flash point is -19 °C.
Compound `CCC(C)C(C)C(C)CC` (configuration not stated) [3,4,5-trimethylheptane] had a flash point of 31 °C.
